Assays:
[1] = test system: A431 cells; test: MTT Assay-2 (A431); assay type: cell-based; details: 0.5 μg/ml Doxorubicin, no light
Procedure: A431 or CL1-5 cells (approx. 5000 cells) were seeded in each well of a 96-well plate and incubated in medium. After 24 hr of incubation, Doxorubicin (FD), Liposomal-Doxorubicin (LD) and Liposomal-Doxorubicin-Hematoporphyrin (LDH) was added into each well and drug concentration was set at 0.5 μg/ml Doxorubicin and 0.3 μg/ml Hp, After 2 hr, the cells of experiment group were illuminated for 10, 20, or 30 J/cm^2, and MTT assay was performed 72 hr later.

[2] = test system: CL1-0 cells; test: MTT Assay-2 (CL1-0); assay type: cell-based; details: 0.5 μg/ml Doxorubicin; no light

## COc1cccc2c1C(=O)c1c(O)c3c(c(O)c1C2=O)C[C@@](O)(C(=O)CO)C[C@@H]3O[C@H]1C[C@H](N)[C@H](O)[C@H](C)O1 [FD, Doxorubicin]
[1]
  toxicity to cell A431 (in words): has toxicity to cell A431 significantly
[1]; A431, 0.3 μg/ml Hp, MTT 72 hr
  activity of mitochondia dehydrogenase (of control group): about 30%
[2]
  toxicity to cell CL1-0 (in words): has toxicity to cell CL1-0 significantly
